No end group written: not given here.
How the values were obtained:
[1] = system: patients with osteoporosis; settings: cited from earlier work; for increase in lumbar spine bone mineral density: two to three years of administration
[2] = molecular target: T1, PTH/PTHrP receptors in human renal cortical membranes (RCM) (Homo sapiens, UniProt Q03431); assay: Competition binding of 125I-(Tyr36)hPTHrP-(1-36)NH2 to human renal cortical membranes
T1 sequence (Q03431 27-593): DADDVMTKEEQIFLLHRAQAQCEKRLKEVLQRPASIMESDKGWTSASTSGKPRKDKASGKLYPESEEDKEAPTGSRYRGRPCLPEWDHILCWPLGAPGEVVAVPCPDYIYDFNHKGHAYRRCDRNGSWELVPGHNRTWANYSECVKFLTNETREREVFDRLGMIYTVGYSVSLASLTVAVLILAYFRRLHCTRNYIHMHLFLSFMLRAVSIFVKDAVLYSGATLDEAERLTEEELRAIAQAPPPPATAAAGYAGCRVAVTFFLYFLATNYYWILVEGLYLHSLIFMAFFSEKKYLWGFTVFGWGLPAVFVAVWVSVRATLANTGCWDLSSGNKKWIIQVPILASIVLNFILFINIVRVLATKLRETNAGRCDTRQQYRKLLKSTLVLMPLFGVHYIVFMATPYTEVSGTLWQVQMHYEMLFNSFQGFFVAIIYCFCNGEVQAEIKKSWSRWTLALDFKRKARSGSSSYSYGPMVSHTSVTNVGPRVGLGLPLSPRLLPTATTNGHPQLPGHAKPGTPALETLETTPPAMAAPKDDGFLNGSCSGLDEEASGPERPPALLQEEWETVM
Experimental: All steps were performed in the presence of the following protease inhibitors: aprotinin [10 Kallikrein inhibitor units (KIU/ml], pepstatin (5 μg/ml), leupeptin (45 μg/ml), and phenylmethanesulfanylfluoride (10 μg/ml). Normal human kidney cortex was from four separate nephrectomy specimens removed for localized transitional cell carcinoma, renal cell carcinoma, or benign cysts. Renal function in all individuals was normal as assessed by serum creatinine and pyelography. Membranes were pooled, aliquoted, and stored at −70° C. for later use.
Human RCM were added to a final concentration of 90 μg/ml. […] The incubation time of 30 min was used for subsequent equilibrium binding competition studies.
(§1) Statistical differences were assessed by paired and unpaired two-tailed Student's t test.

[3] = molecular target: T2, PTH/PTHrP receptors on SaOS-2 intact cells (Homo sapiens, UniProt Q03431); assay: Competition binding of 125I-(Tyr36)hPTHrP-(1-36)NH2 to SaOS-2 intact cells; settings: SaOS-2 cells
T2 sequence (Q03431 27-593): T1 sequence (Q03431 27-593)
Experimental: The medium was changed every other day, and studies were performed at 5-7 days post confluence. Cell numbers were determined using a Coulter counter.
Binding studies were conducted at 15° C. in the presence of chymostatin (100 μg/ml) and bacitracin (200 μg/ml). […] The incubation time of 150 min was therefore used for competitive binding studies.

[4] = system: adenylate cyclase in SaOS-2 intact cells; assay: Adenylate cyclase assay in SaOS-2 intact cells; assay type: cell-based, human; settings: 15° C., 60 min
Experimental: Adenylate cyclase-stimulating activity was examined in confluent SAOS-2 cells as previously described for ROS 17/2.8 cells (Merendino et al., Science 231:388-390, (1986)), with the following modification. The intact cell assay was conducted at 15° C., the same conditions employed for binding to intact SaOS-2 cells (vide supra). […] Dose response curves for each peptide were thus generated using 60 min incubations at 15° C. under binding assay conditions.
as §1

O=C(c1ccc(OCCN2CCCCC2)cc1)c1c(-c2ccc(O)cc2)sc2cc(O)ccc12 [raloxifene]
increase in lumbar spine bone mineral density [1]: ~3%

PTH(1-84)
hypercalcemia, serum calcium ([1]; doses of approximately 40 micrograms): up to 15 mg/dl

[Ca+2] [calcium]
increase in lumbar spine bone mineral density [1]: ~2%

hPTHrP-(1-74)
affinity less than that of hPTHrP-(1-36) ([2]; RCM): 25 fold | affinity less than that of hPTHrP-(1-36) [3]: 9 fold | EC50 [4]: 0.0092 ± 0.001 µM

SVSEMQLMHNLGEHRHTVERQDWLQMKLQDVHSA-NH2 [cPTH-(1-34)NH2, Chicken PTH-(1-34)amide]
IC50 ([2]; human RCM, 30° C., 30 min, read-out: Binding (IC50) Kidney membranes): 0.0215 ± 0.0085 µM

vitamin D
increase in lumbar spine bone mineral density [1]: ~2%

Source: patent publication US7384912B2, “Treatment of bone disorders with skeletal anabolic drugs” (Osteotrophin, LLC, priority 2002, dated 2008)
